Test results taken from patent publication US6737383B1, “Herbicidal oxadiazolidines” (priority 1999, dated 2004).

Legend:
[1] = tested on: bedstraw; test: Test B pre/postemergence bedstraw; type: in vivo, Galium aparine
Outline: (§1)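 Response is a visual 0-to-10 score relative to untreated plants, where 0 means no effect and 10 means complete control, taken twelve to sixteen days after application. Treatments went onto soil at planting and onto foliage of 1- to 4-leaf plants, using a surfactant-containing non-phytotoxic solvent.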

[2] = tested on: blackgrass; test: Test B pre/postemergence blackgrass; type: in vivo, Alopecurus myosuroides
Outline: as §1

[3] = tested on: surinam grass; test: Test B pre/postemergence surinam grass; type: in vivo, Brachiaria decumbens
Outline: as §1

[4] = tested on: bamyardgrass; test: Test B flood test barnyardgrass; type: in vivo, Echinochloa crus-galli; conditions: for Plant response rating, Barnyardgrass (0 to 10 scale, 0 is no effect, 10 is complete control) / Barnyardgrass plant response rating (0 to 10 scale, 0 is no effect, 10 is complete control): visual evaluation after twelve to sixteen days; for Barnyardgrass plant response rating (0 to 10 scale, 0 is no effect, 10 is complete control): under heading Pre-emergence
Outline: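 Each value is a visual injury score relative to controls, with 10 meaning complete control and 0 no effect. Evaluation took place twelve to sixteen days after the 2-leaf-stage plants were treated and kept in the greenhouse.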

[5] = Postemergence, Rate 62 g/ha, scale 0 to 10, 0 is no effect, 10 is complete control
[6] = Postemergence, Rate 250 g/ha, scale 0 to 10, 0 no effect, 10 complete control
[7] = Preemergence, Rate 62 g/ha, scale 0 to 10, 0 is no effect, 10 is complete control
[8] = Preemergence, Rate 125 g/ha, scale 0 to 10 (0 no effect, 10 complete control)
[9] = Preemergence, Rate 250 g/ha, scale of 0 to 10 where 0 is no effect and 10 is complete control
[10] = Preemergence, Rate 500 g/ha, scale 0 (no effect) to 10 (complete control)
[11] = Rate 125 g/ha, Postemergence, scale 0 to 10, 0 no effect, 10 complete control
[12] = Rate 500 g/ha, Postemergence, 0 to 10 scale (0 no effect, 10 complete control)
[13] = Postemergence, Rate 250 g/ha, scale 0 to 10
[14] = Postemergence, Rate 500 g/ha, scale of 0 to 10 where 0 is no effect and 10 is complete control
[15] = Preemergence, Rate 62 g/ha, scale of 0 to 10 where 0 is no effect and 10 is complete control
[16] = Preemergence, Rate 125 g/ha, scale of 0 to 10 where 0 is no effect and 10 is complete control
[17] = Preemergence, Rate 250 g/ha, scale 0 to 10, 0 is no effect, 10 is complete control
[18] = Preemergence, Rate 500 g/ha, scale 0 to 10, 0 is no effect, 10 is complete control
[19] = Rate 62 g/ha, Postemergence, scale 0 to 10, 0 no effect, 10 complete control
[20] = Rate 125 g/ha, Postemergence, scale 0 to 10, 0 is no effect, 10 is complete control
[21] = Rate 62 g/ha, flood test species, Pre-emergence
[22] = Rate 125 g/ha, flood test species
[23] = Rate 250 g/ha, Pre-emergence (flood test species), scale 0 to 10, 0 is no effect, 10 is complete control
[24] = Postemergence, Rate 125 g/ha, scale of 0 to 10 where 0 is no effect and 10 is complete control
[25] = Postemergence, Rate 250 g/ha, scale of 0 to 10, 0 is no effect, 10 is complete control
[26] = Preemergence, Rate 250 g/ha, scale 0 to 10 (0 no effect, 10 complete control)
[27] = Preemergence, Rate 500 g/ha, scale of 0 to 10 where 0 is no effect and 10 is complete control
[28] = Rate 500 g/ha, Postemergence, scale 0 to 10, 0 is no effect, 10 is complete control
[29] = Rate 500 g/ha, Pre-emergence section of Table B, 0 to 10 scale (0 no effect, 10 complete control)
[30] = Preemergence, Rate 62 g/ha, scale 0 to 10 (0 no effect, 10 complete control)

CC(C)N(C(=O)n1oc(=O)n(-c2cc(Cl)ccc2Cl)c1=O)c1ccc(F)cc1 [Compound 16]
2: Blackgrass plant response rating [2, 12]
0: Bedstraw plant response rating [1, 5] | Bedstraw plant response rating [1, 6] | Plant response rating, Bedstraw [1, 7] | Plant response rating, Bedstraw [1, 8] | Plant response rating, Bedstraw [1, 9] | Bedstraw plant response rating [1, 10] | Bedstraw plant response rating [1, 11] | Bedstraw plant response rating [1, 12] | Blackgrass plant response rating [2, 5] | Blackgrass plant response rating [2, 6] | Plant response rating, Blackgrass [2, 7] | Plant response rating, Blackgrass [2, 8] | Plant response rating, Blackgrass [2, 9] | Blackgrass plant response rating [2, 10] | Blackgrass plant response rating [2, 11] | B. signalgrass plant response rating [3, 5] | B. signalgrass plant response rating [3, 6] | Plant response rating, B. signalgrass [3, 7] | Plant response rating, B. signalgrass [3, 8] | Plant response rating, B. signalgrass [3, 9] | B. signalgrass plant response rating [3, 10] | B. signalgrass plant response rating [3, 11] | B. signalgrass plant response rating [3, 12] | Barnyardgrass plant response rating [4, 5] | Barnyardgrass plant response rating ([4]; Rate 125 g/ha, Postemergence section (flood test species), scale 0 to 10, 0 no effect, 10 complete control) | Barnyardgrass plant response rating ([4]; Rate 500 g/ha, Postemergence section of Table B, 0 to 10 scale (0 no effect, 10 complete control)) | Barnyardgrass plant response rating ([4]; flood test, listed under Postemergence, Rate 250 g/ha, scale 0 to 10, 0 no effect, 10 complete control)

CC[Si](C)(C)Cn1c(=O)on(C(=O)N(c2ccc(F)cc2)C(C)C)c1=O [Compound 459]
8: Bedstraw plant response rating [1, 14] | Blackgrass plant response rating [2, 13] | Blackgrass plant response rating [2, 14]
5: Blackgrass plant response rating [2, 17]
1: Blackgrass plant response rating [2, 20] | B. signalgrass plant response rating [3, 17] | B. signalgrass plant response rating [3, 18]
0: Plant response rating, Bedstraw [1, 15] | Plant response rating, Bedstraw [1, 16] | Plant response rating, Blackgrass [2, 15] | Plant response rating, Blackgrass [2, 16] | Blackgrass plant response rating [2, 19] | B. signalgrass plant response rating [3, 6] | B. signalgrass plant response rating [3, 14] | Plant response rating, B. signalgrass [3, 15] | Plant response rating, B. signalgrass [3, 16] | B. signalgrass plant response rating [3, 19] | B. signalgrass plant response rating [3, 20] | Plant response rating, Barnyardgrass (0 to 10 scale, 0 is no effect, 10 is complete control) [4, 21] | Barnyardgrass plant response rating (0 to 10 scale, 0 is no effect, 10 is complete control) [4, 22] | Barnyardgrass plant response rating [4, 23] | Barnyardgrass plant response rating ([4]; Rate 500 g/ha, Pre-emergence, flood test species, scale 0 to 10 (0 no effect, 10 complete control))
6: Bedstraw plant response rating [1, 13] | Blackgrass plant response rating [2, 18]

CC(C)N(C(=O)n1oc(=O)n(CCCC#N)c1=O)c1ccc(F)cc1F [Compound 675]
7: Blackgrass plant response rating [2, 25]
8: B. signalgrass plant response rating [3, 25] | Plant response rating, B. signalgrass [3, 26] | B. signalgrass plant response rating [3, 28]
10: Plant response rating, Bedstraw [1, 26] | Plant response rating, Bedstraw [1, 27] | Plant response rating, Blackgrass [2, 27] | Plant response rating, B. signalgrass [3, 27]
2: Plant response rating, Bedstraw [1, 16]
6: Bedstraw plant response rating [1, 25] | Plant response rating, B. signalgrass [3, 16]
0: Plant response rating, Bedstraw [1, 5] | Bedstraw plant response rating [1, 15] | Plant response rating, Barnyardgrass (0 to 10 scale, 0 is no effect, 10 is complete control) [4, 21] | Barnyardgrass plant response rating (0 to 10 scale, 0 is no effect, 10 is complete control) [4, 22] | Barnyardgrass plant response rating [4, 23] | Barnyardgrass plant response rating [4, 29]
9: Plant response rating, Blackgrass [2, 16] | Plant response rating, Blackgrass [2, 26] | Blackgrass plant response rating [2, 28]
4: B. signalgrass plant response rating [3, 24] | B. signalgrass plant response rating [3, 15]
5: Plant response rating, Blackgrass [2, 5] | Blackgrass plant response rating [2, 24] | Blackgrass plant response rating [2, 15]
1: Bedstraw plant response rating [1, 24] | Plant response rating, B. signalgrass [3, 5]

CCOC(Cn1c(=O)on(C(=O)N(c2ccc(F)cc2)C(C)C)c1=O)OCC [Compound 629]
1: Plant response rating, B. signalgrass [3, 24]
5: Plant response rating, Bedstraw [1, 24] | Plant response rating, B. signalgrass [3, 26]
4: Blackgrass plant response rating [2, 30]
2: B. signalgrass plant response rating [3, 16]
0: Bedstraw plant response rating [1, 30] | Bedstraw plant response rating [1, 16] | Plant response rating, B. signalgrass [3, 5] | B. signalgrass plant response rating [3, 30] | Plant response rating, Barnyardgrass (0 to 10 scale, 0 is no effect, 10 is complete control) [4, 21] | Barnyardgrass plant response rating (0 to 10 scale, 0 is no effect, 10 is complete control) [4, 22] | Barnyardgrass plant response rating [4, 23] | Barnyardgrass plant response rating [4, 29]
10: Plant response rating, Blackgrass [2, 27]
8: Bedstraw plant response rating [1, 25] | Plant response rating, Bedstraw [1, 27] | Plant response rating, Blackgrass [2, 24] | Blackgrass plant response rating [2, 25] | Plant response rating, Blackgrass [2, 14] | Blackgrass plant response rating [2, 16] | Plant response rating, Blackgrass [2, 26] | Plant response rating, B. signalgrass [3, 27]
7: Plant response rating, B. signalgrass [3, 14]
3: Plant response rating, Bedstraw [1, 5] | Plant response rating, Bedstraw [1, 26] | Plant response rating, Blackgrass [2, 5] | B. signalgrass plant response rating [3, 25]
